The source of these data is patent US10323013B2, “Inhibitors of the IRE-1/XBP-1 pathway and methods of using thereof” (H. LEE MOFFITT CANCER CENTER AND RESEARCH INSTITUTE, INC., priority 2013, dated 2019).

Several values for one entry are separate records, joined by “and”; a condition that tells them apart may be missing. Equal entries are not always repeated. Where two headings read alike, the source gives them in different places. Where only a bound is given, the exact number is not on record here.

A word on the IC50: it is the concentration at which inhibition is half-maximal.

One data set deals with recombinant hIRE-1 (Homo sapiens (Human), UniProt O75460). In words: In vitro IRE-1 RNase FRET-suppression assay. In kind it is biochemical.
Sequence of recombinant hIRE-1 (O75460 547-977): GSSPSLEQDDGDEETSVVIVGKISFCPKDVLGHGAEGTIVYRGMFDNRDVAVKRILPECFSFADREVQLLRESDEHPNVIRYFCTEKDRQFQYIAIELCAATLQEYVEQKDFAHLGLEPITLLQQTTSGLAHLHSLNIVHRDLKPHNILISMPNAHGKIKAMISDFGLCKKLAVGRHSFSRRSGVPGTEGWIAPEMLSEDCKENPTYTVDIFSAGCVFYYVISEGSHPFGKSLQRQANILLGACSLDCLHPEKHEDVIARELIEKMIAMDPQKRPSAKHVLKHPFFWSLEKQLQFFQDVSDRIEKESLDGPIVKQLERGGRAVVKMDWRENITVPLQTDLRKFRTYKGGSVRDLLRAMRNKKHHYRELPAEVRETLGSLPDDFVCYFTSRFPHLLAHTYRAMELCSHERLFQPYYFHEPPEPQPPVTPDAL
A short description of data set [1]: Degradation (chemical stability) studies by HPLC/LCMS. In kind it is physicochemical. As to conditions: over 12 hours, rt. The protocol: The degradation of analog 24 was plotted as a function of time upon exposure to FRET-suppression assay buffer at rt. Aliquots were partitioned with MeOH and injected onto LCMS (UV monitored at 320 nm) and peaks integrated relative to internal standard.
A 20 mM stock solution of B-I09 in DMSO was diluted to 0.5 mM in FRET assay buffer (20 mM HEPES, pH 7.5, 50 mM KOAc, 0.5 mM MgCl2, 3 mM DTT, 0.4% PEG) or cell culture media (RPMI supplemented with 10% fetal bovine serum). The FRET assay buffer and cell culture media solutions were incubated at room temperature and 37° C., respectively. At various time points, a 50 μL aliquot of each solution was added to 50 μL of methanol and the mixture analyzed by analytical reverse-phase HPLC (C18 4 mm×150 mm column, 1 mL/min flow rate) with acetonitrile/water (0.1% formic acid) as eluent. Absorbance was read at 320 nm and the degradation product (aldehyde) was identified by LCMS and co-injection with pure synthetic sample. Degradation studies were carried out in duplicate and data points reported as the mean of two values.

In the next data set the test system is XBP-1 mRNA splicing. In words: XBP-1 mRNA splicing by RT-PCR. It is filed as cell-based. Conditions: human WaC3 CLL cells, 24 h.
The test system of the next data set is XBP-1s expression. The data set can be described thus: Inhibition of XBP-1s expression in LPS-stimulated mouse B cells (immunoblots). In kind it is cell-based. Conditions: for inhibition of XBP-1s expression (in words): LPS 48 h, then inhibitor 20 μM for 24 h (Example 3 prints 20 mM); for inhibition of XBP-1 expression (in words): inhibitor 50 μM (b479 prints 50 mM), also Eμ-TCL1 CLL and WaC3 cells.

The next data set deals with MEC2 cells. The data set can be described thus: Cell proliferation XTT assay, MEC2. In kind it is cell-based, human. As to conditions: MEC2, 50 μM, first 48 h. As to the method: (§1) Eμ-TCL1, MEC1, MEC2, WaC3, or primary human CLL cells were grown in 96-well cell culture plates overnight and then treated with fresh phenol red-free culture medium containing STF-083010 (50 μM), A-I06 (50 μM), A-I07 (50 μM) or fludarabine (30 μM). […] Briefly, 50 μl XTT labeling reagent was combined with 100 μl electron-coupling reagent, and the mixture was applied to each well of the 96-well plates. The test was based on cleavage of the yellow tetrazolium salt XTT by mitochondrial dehydrogenases of the metabolic active cells to form the orange formazan compound, which can be spectrophotometrically quantified at 492 nm using a BioTek microplate reader.
(Tetrazolium assays rely on reduction of a dye to a coloured formazan, in cell work by metabolically active cells.)

Data set [2] is described as follows: STF-083010 stability studies by RP-HPLC. In kind it is physicochemical. The protocol:
STF-083010 stability studies were performed using analytical reverse-phase high pressure liquid chromatography (RP-HPLC) with a C18 column (4 mm×150 mm) and a 10-90% linear gradient of acetonitrile in water (containing 0.1% formic acid) as eluent over 20 minutes (1 ml/min flow rate). Compounds were detected at λ=254 nm. Crystalline STF-083010 was analyzed on a standard Bruker X8 Apex2 CCD-based X-ray diffractometer, and the solid-state structure was solved and refined with the Bruker SHELXTL (version 6.12) software package. Diffraction data (excluding structure factors) for STF-083010 have been deposited with the Cambridge Crystallographic Data Centre as supplementary CCDC publication number 850879.

The test system of another data set is MEC1 cells. In words: Cell proliferation XTT assay, MEC1. It is filed as cell-based, human. Conditions: MEC1, 50 μM, first 48 h. As to the method:
as §1

In another data set the test system is WaC3 cells. In words: Cell proliferation XTT assay, WaC3. Conditions: WaC3, 50 μM, course of 4 days. In kind it is cell-based, human. The protocol:
as §1

The next data set concerns Eμ-TCL1 CLL cells. In words: Cell proliferation XTT assay, Eμ-TCL1 CLL cells. In kind it is cell-based, mouse. As to conditions: 50 μM, after 3 days. As to the method:
as §1

For a further data set, the system named is primary human CLL cells. In words: Cell proliferation XTT assay, primary human CLL cells. As to conditions: primary human CLL cells, 50 μM, 3 days. It is filed as cell-based. As to the method:
as §1

Data set [3] can be described thus: Aqueous solubility (stated in words). It is filed as physicochemical.

From the text for XBP-1 mRNA splicing: Total RNA was isolated using TRIzol reagent (Invitrogen). Complementary DNA was synthesized from RNA using Superscript II reverse transcriptase (Invitrogen).
Method for XBP-1s expression: The protein concentrations of the supernatants were determined by BCA assay (Pierce). […] Proteins were transferred to nitrocellulose membranes, blocked in 5% milk (wt/vol in PBS), and immunoblotted with the indicated antibodies and appropriate horseradish peroxidase-conjugated secondary antibodies. Following multiple washes in PBS, the blots were developed using Western Lighting Chemiluminescence Reagent (Perkin-Elmer).
Protein concentrations were determined by BCA assays (Pierce). […] Proteins were transferred to nitrocellulose membranes, blocked in 5% non-fat milk (wt/vol in PBS), and immunoblotted with indicated primary antibodies and appropriate horseradish peroxidase-conjugated secondary antibodies. Immunoblots were developed using Western Lighting Chemiluminescence Reagent (Perkin-Elmer).
Method for recombinant hIRE-1: Fluorescence was read at various time points using a Biotek Synergy H1 plate reader with excitation and emission at 620 nm and 680 nm, respectively. […] All fluorescence readings were corrected using background values from wells containing only 120 μL of 50 nM XBP-1 RNA.
Fluorescence was read at various time points using a Biotek Synergy H1 plate reader with excitation and emission at 620 nm and 680 nm, respectively. […] All fluorescence readings were corrected using background values from wells containing only 120 mL of 50 nM XBP-1 RNA.

As for `C=CCOC(=O)N1CCc2c(c(=O)oc3c(C=O)c(OCc4ccccc4)ccc23)C1` [Compound 27, allyl 7-formyl-8-benzyloxy-5-oxo-4,5-dihydro-1H-chromeno[3,4-c]pyridine-3(2H)-carboxylate], the “IRE-1 RNase inhibitory activity in FRET-suppression assay (in words)” value on recombinant hIRE-1 is given as “complete loss of potency below 20 mM”. In addition, the IC50 at recombinant hIRE-1 (In vitro IRE-1 RNase inhibition by analogs of 21b, FRET-suppression assay, read-out: IC50) was more than 0.02 mM.
As to `C=CCOC(=O)N1CCc2c(c(=O)oc3c(C4OCCCO4)c(O)ccc23)C1` [Compound 24, allyl 7-(1,3-dioxan-2-yl)-8-hydroxy-5-oxo-4,5-dihydro-1H-chromeno[3,4-c]pyridine-3(2H)-carboxylate], the “decomposition of the 1,3-dioxane moiety in assay buffer (in words)” value in data set [1] is “no significant decomposition”. Moreover, the “inhibition of splicing of XBP-1 mRNA (in words)” value in the data set with XBP-1 mRNA splicing was “highly effective”.
Take `C=CCOC(=O)N1CCc2c(c(=O)oc3c(C=O)c(O)ccc23)C1` [Compound 21b, Allyl 7-formyl-8-hydroxy-5-oxo-4,5-dihydro-1H-chromeno[3,4-c]pyridine-3(2H)-carboxylate]: in the data set on XBP-1s expression (Mus musculus, B-cell, LPS-stimulated B cells, 24 h, immunoblots, densitometry, approximate, read-out: IC50 for suppressing XBP-1s expression), the 50% inhibitory concentration (IC50) was approximately 5.1 µM.
Regarding `Cc1cc(=O)oc2c(C=O)c(O)ccc12` [Compound 4μ8C, 7-hydroxy-4-methyl-2-oxo-2H-chromene-8-carbaldehyde], the IC50 on recombinant hIRE-1 (5 nM hIRE-1, 50 nM XBP-1 RNA, read-out: IC50 in FRET-suppression assay) was 0.000155 mM and 0.000206 mM. The “inhibition of XBP-1s expression (in words)” value with XBP-1s expression was “strong inhibition”.
Regarding `O=Cc1c(O)ccc2ccccc12` [A-I07], the “IRE-1 RNase inhibitory activity in FRET-suppression assay (in words)” value on recombinant hIRE-1 is listed as “no appreciable inhibition at 20 mM”.
Regarding `O=S(=O)(NCc1c(O)ccc2ccccc12)c1cccs1` [B-A05], in the data set with XBP-1s expression, the “inhibition of XBP-1 expression (in words)” value is “did not significantly alter XBP-1 expression”.
For `O=S(=O)(N=Cc1c(O)ccc2ccccc12)c1cccs1` [STF-083010], the growth inhibition in the data set with MEC2 cells is reported as approximately 20%; in the data set with MEC1 cells it was approximately 20%; in the data set with Eμ-TCL1 CLL cells, approximately 70%. In addition, the “stability in 1:1 DMSO:water mixture (in words)” value in data set [2] (brief exposure) is recorded as “complete decomposition”. Moreover, in data set [2] (repeated freeze-thaw cycles), the “stability of DMSO stock solutions (in words)” value is “readily hydrolyzed into precursors A-I06 and A-I07”. Further, the IC50 on recombinant hIRE-1 (text values of Example 3, unit printed as mM, read-out: IC50 in FRET-suppression assay) is 9.94 mM. The “growth response (in words)” value in the data set with WaC3 cells was “gradually decreased growth”. Besides, the “cytotoxic effect (in words)” value in the data set on primary human CLL cells is listed as “significant cytotoxic effect”. The “inhibition of XBP-1 expression (in words)” value in the data set with XBP-1s expression is “can suppress the expression of XBP-1”.
`N=C(N)N1CCc2c(c(=O)oc3c(C=O)c(O)ccc23)C1` [Compound 34, 7-Formyl-8-hydroxy-5-oxo-4,5-dihydro-1H-chromeno[3,4-c]pyridine-3(2H)-carboximidamide]: the “solubility (in words)” value in [3] is listed as “solubility decreased”. Further, the “inhibition of XBP-1s expression (in words)” value in the data set on XBP-1s expression is reported as “did not effectively inhibit XBP-1s expression”.
